From patent US20200239597A1, “AN ANTI-APOPTOTIC FUNCTION OF PKM2 AND INTRACELLULARLY EXPRESSED SCFV ANTIBODIES” (La Jolla Institute for Allergy and Immunology, priority 2017, published 2020)

Legend:
293T cells = experiment: Clonogenic survival assay after BimS transfection, 293T cells; assay type: cell-based, human; parameters: protection of cells from BimS-induced death by the compound alone: dose or concentration left out as unconfirmed; settings: DASA-58 not shown; for effect on the pro-survival effect of IB5 expression: 293T cells cultured in the presence of the compound; for protection of cells from BimS-induced death by the compound alone: without IB5
Experimental: Control 293T or IB5-expressing cells were incubated with or without 27 µg/ml TEPP-46 for 3 h, then transfected with BimS cDNA in a further 24-h incubation also including TEPP-46 or vehicle. The plates were fixed and stained with crystal violet after 1 week. The total area of colonies (a measure of the total mass of proliferating cells) formed in each well from were quantified using ImageJ software; mean±SEM are shown from 3 independent experiments.
Cell viability was measured with a Countess™ Automated Cell Counter (Invitrogen) using trypan blue. For the clonogenic survival assay, 293T or MEFs cells were seeded in 6-well plates at 1×10^5 cells/well in a 2-ml volume, transfected with BimS cDNA and incubated for 24 h. Afterwards, the medium was replaced and the cells cultured for 3-4 days. Thereafter, the plates were rinsed with PBS and fixed and stained with a solution containing crystal violet (0.5% w/v) and glutaraldehyde (6% v/v) as described (Franken et al., 2006).

Bcl-2 family proteins = experiment: Immunoblots of Bcl-2 family proteins; assay type: cell-based, human; settings: alone or in combination; TEPP-46 27 μM
Experimental: Levels of several Bcl-2 family proteins were unchanged following IB5 expression or incubation with TEPP-46, or both. Cell lysates from 293T cells infected with and without IB5 and incubated with and without TEPP-46 (27 μM) were separated on SDS-12% polyacrylamide gels. Bcl-2 family proteins were detected by immunoblotting. The bands were quantified using ImageJ and normalized to the control cell lysate on the leftmost lane.
293T cells were washed with PBS and lysed with PBS containing 1% NP-40. Protein concentration was determined using Pierce™ BCA reagent (ThermoFisher; 23221, 23224). 35 μg protein was loaded in each lane of 12% SDS-PAGE gels. Proteins were transferred to nitrocellulose membrane and immunoblotted with the following primary antibodies: anti-Bax antibody (Santa Cruz N20), anti-Bak antibody (Cell Signaling 3814), anti-Bid antibody (R&D Systems AF860), anti-Bim antibody (Sigma B7929), anti-Puma antibody (Cell Signaling 4976), anti-Bcl-2 antibody (Abcam 32124), anti-Bcl-xL antibody (Cell Signaling 2764) and anti-Mcl-1 (Santa Cruz S19) at 1:1000 dilution. The secondary anti-rabbit and mouse antibodies, conjugated with HRP, were obtained from Santa Cruz and were used at 1:2000 dilution. The luminescence signal was detected using ECL reagent (ThermoFisher 32106).

WT PKM2 [1] = target: T1, WT PKM2 (Homo sapiens, UniProt P14618); experiment: Blue native gel electrophoresis of recombinant proteins, WT PKM2; assay type: binding; settings: blue native gel
T1 construct: His (N); made in house; host or cells: Escherichia coli BL21(DE3)
Experimental: Left: A monovalent form of scFv 5, produced in E. coli, induced tetramer formation in WT PKM2 along with a bandshift whose magnitude was dependent on the input amount of scFv 5. […] Reaction volume was 20 μl.
(§1) Because glucose metabolism can influence cell survival (Fulda and Debatin, 2007; Moley and Mueckler, 2000; Munoz-Pinedo et al., 2012), The present inventors asked whether IB5 could rescue cells simply through stimulating PKM2's glycolytic activity. First, to analyze the antibody's interaction with PKM2, the present inventors produced monovalent scFv 5 and PIKM2 as recombinant proteins in E. coli and analyzed mixtures of these proteins, by blue native gel electrophoresis (FIG. 3A).

PKM2 (K270M) = target: T2, PKM2 (K270M) (Homo sapiens, UniProt P14618, K270M); experiment: Blue native gel electrophoresis, PKM2 (K270M); assay type: binding; settings: not shown
T2 construct: His (N); made in house; host or cells: Escherichia coli BL21(DE3)
Text: To begin to define the aspects of PKM2 function required for the IB5-induced anti-apoptotic effect, the present inventors reconstituted PKM2-null MEFs with WT or mutant forms of PKM2. The present inventors first analyzed the K270M mutation, reported to be catalytically dead (Bollenbach et al., 1999; Dombrauckas et al., 2005; Luo et al., 2011).

WT PKM2 [2] = target: T1, WT PKM2; experiment: Pyruvate kinase assay (Kinase-Glo Plus), WT PKM2; assay type: biochemical; settings: PKM2 at 50 nM; ADP and PEP as substrates
Experimental: Activity was measured by Kinase-Glo® Plus Luminescent Kinase Assay kit (promega), using ADP and PEP as substrates), with PKM2 at 50 nM. Shown are values with the basal activity of PKM2 alone subtracted out.
Pyruvate kinase activity was measured by using Kinase-Glo® Plus Luminescent Kinase Assay kit (Promega). 50-100 nM of purified WT or mutant PKM2 was added in 100 μl assay buffer containing 50 mM Tris pH7.5, 100 mM KCl, 10 mM MgCl2, 200 μM PEP, 200 μM ADP, and 3% DMSO. After a 15-min incubation, Kinase-Glo Plus™ reagent (Promega Corporation, Madison, Wis., USA) was added, according to the manufacturer's instructions. In some cases, 0-40 μM fructose 1,6-bisphosphate (FBP) and 0-150 nM scFv 5 were added.

recombinant PKM1 = target: T3, recombinant PKM1 (UniProt P14618-2 1-531); experiment: in vitro experiments with recombinant proteins (blue native gel bandshift; scFv 5 failed to shift PKM1)
T3 construct: Ran as a constitutive tetramer; also called PIKM1; M1 isoform of pyruvate kinase
Text: as §1, with “3A). […] Thus, the intrabody bound directly to PKM2, promoting its stable tetramerization, and moreover, higher input ratios of scFv:PKIM2 produced increased binding stoichiometry.” for “3A).”

[3] = target: T4, pyruvate kinase M2 (PKM2) (Homo sapiens, UniProt P14618); experiment: Target protein immunoprecipitation (FLAG pull-down, mass spectrometry, immunoblot); assay type: binding; settings: Triton X-100 extracts of 293T cells, anti-FLAG beads
T4 construct: some intrabodies precipitated specific cellular proteins; endogenous in cells; host or cells: HEK293T (293T)
Experimental: FIG. 1 C is a photograph of a non-limiting SDS-PAGE gel with silver stain from an immunoprecipitation assay using antibodies encoded by DNA sequences isolated from FIG. 1B. […] Intrabodies that rescued cells from BimS-induced death were chosen for pull-down analysis as described in Methods. Left panel: Triton™-X-100 (1%) cell extracts were incubated with anti-FLAG beads, then proteins eluted with 3×FLAG peptide and separated by SDS-PAGE with silver stain. Specific bands are marked with dots; some bands (e.g. at 37 and 70 kD) are nonspecific. […] The bands near 25 kD are the scFv polypeptides, whose expression levels varied.
Flag-tagged intrabody was introduced along with a tandem Strep-tag by PCR into the same lentiviral vector used for selection. 293T cells infected with the intrabody lentivirus were incubated at 30° C. for 72 h as described above. After washing with cold PBS, 5×10^8 cells were lysed for 15 minutes on ice in lysis buffer (50 mM Tris HCl, pH 7.4, 150 mM NaCl, 1 mM EDTA, 1% Triton™ X-100). Cell lysates were clarified by centrifugation for 15 minutes at 4° C. at 16,000×g. The total protein content of the soluble fraction was quantified using the BCA assay. For pull-down experiments, 10 mg of protein lysate was incubated with 200 al of EZview™ Red anti-FLAG® M2 Affini-ty Gel (Sigma-Aldrich) for 2 h at 4° C. Beads were washed 3 times in wash buffer (50 mM Tris HCl, pH 7.4, 150 mM NaCl, 1 mM EDTA, 0.1% Triton X-100). Elution was performed under native conditions by competition with 3×FLAG peptide following the manufacturer's protocol. Eluates were used for the second step purification using Strep-Tactin Superflow Plus™ [Qiagen], following the manufacturer's instructions. The final two-step purified protein was used for SDS-PAGE analysis. Bands of interest were cut out from the gel and subjected to in-gel digestion with trypsin (Promega, Fitchburg, Wis., USA) followed by MALDI TOF/TOF mass spectrometry analysis (Biomolecular and Proteomics Mass Spectrometry Facility, University of California at San Diego).

T4 sequence (P14618 whole entry): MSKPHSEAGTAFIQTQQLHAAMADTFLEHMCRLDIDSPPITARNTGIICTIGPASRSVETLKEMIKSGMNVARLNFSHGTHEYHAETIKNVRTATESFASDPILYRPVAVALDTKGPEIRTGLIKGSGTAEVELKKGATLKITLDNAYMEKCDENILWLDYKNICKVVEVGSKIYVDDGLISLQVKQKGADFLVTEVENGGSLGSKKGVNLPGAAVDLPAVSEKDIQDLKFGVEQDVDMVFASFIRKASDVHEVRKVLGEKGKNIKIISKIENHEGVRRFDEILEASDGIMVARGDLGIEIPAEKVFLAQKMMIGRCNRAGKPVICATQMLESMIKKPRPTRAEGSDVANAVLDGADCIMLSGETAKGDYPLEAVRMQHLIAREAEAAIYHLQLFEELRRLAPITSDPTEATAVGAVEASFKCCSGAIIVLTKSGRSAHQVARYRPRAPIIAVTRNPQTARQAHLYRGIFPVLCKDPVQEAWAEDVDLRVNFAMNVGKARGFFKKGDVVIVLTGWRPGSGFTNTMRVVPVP
T1 sequence (P14618 whole entry): as above
T3 sequence (P14618 other isoform, or with tags, fused parts or gaps): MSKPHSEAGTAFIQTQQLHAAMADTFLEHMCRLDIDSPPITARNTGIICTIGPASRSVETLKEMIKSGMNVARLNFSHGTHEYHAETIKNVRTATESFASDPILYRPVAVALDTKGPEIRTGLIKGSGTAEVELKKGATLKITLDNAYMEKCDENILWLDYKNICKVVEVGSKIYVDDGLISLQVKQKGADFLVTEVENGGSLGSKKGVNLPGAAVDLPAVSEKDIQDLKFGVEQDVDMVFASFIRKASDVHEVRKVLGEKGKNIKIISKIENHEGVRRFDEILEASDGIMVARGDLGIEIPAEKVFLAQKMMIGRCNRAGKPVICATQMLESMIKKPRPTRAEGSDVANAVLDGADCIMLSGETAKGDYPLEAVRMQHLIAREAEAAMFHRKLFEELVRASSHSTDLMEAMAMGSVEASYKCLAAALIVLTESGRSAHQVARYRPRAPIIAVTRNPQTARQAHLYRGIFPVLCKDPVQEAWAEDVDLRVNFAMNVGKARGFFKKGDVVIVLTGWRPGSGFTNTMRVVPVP
T2 sequence (P14618 whole entry K270M): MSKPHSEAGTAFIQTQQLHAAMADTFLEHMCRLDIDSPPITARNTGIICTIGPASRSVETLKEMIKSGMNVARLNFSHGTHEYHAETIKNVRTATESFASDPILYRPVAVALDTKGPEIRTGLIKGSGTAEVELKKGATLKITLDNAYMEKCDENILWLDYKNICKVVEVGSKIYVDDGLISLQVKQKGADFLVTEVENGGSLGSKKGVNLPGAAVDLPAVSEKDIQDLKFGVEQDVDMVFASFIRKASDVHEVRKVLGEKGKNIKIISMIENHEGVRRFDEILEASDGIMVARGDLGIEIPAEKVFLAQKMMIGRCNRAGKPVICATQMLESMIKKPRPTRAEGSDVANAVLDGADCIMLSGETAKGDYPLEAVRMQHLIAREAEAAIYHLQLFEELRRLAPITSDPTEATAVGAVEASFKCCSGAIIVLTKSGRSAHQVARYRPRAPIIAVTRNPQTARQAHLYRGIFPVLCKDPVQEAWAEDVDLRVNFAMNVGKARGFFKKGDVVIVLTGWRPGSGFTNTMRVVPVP

Molecule | effect on the pro-survival effect of IB5 expression (293T cells) | protection of cells from BimS-induced death by the compound alone (293T cells) | protein pulled down from cell extracts [3] | further results
Cn1c2cc([S+](C)[O-])sc2c2cnn(Cc3cccc(N)c3)c(=O)c21 (centres unmarked) [TEPP-46] | enhanced the pro-survival effect of IB5 expression to a modest but statistically significant extent | did not protect cells | – | levels of Bax, Bak, Bid, Bim, Puma, Bcl-2, Bcl-xL and Mcl-1 (Bcl-2 family proteins): failed to change the mitochondrial levels
Nc1cccc(S(=O)(=O)N2CCCN(S(=O)(=O)c3ccc4c(c3)OCCO4)CC2)c1 [DASA-58] | enhanced the pro-survival effect of IB5 expression to a modest but statistically significant extent | did not protect cells | – | –
O=C(COP(=O)(O)O)[C@@H](O)[C@H](O)[C@H](O)COP(=O)(O)O [FBP, fructose 1,6-bisphosphate, reference compound] | – | – | – | tetramer formation of WT PKM2 (WT PKM2 [1]): produced the tetramer form; stable tetramer formation of PKM2 (K270M) (PKM2 (K270M)): prevented the protein from forming stable tetramers; glycolytic (pyruvate kinase) activity of WT PKM2 (WT PKM2 [2]): Stimulation of PKM2 activity
monovalent scFv 5 produced as recombinant protein in E. coli (scFv, also called purified scFv 5; recombinant scFv 5) scFv: MAQVQLVETGPGLVKPSETLSLRCTVSGGSFDNYYWNWIRQPPGKGLEYIGYVFPSTGATNYNPSLGSRVTISLDTSKNQFSLTLTSVTTADTAIYYCVRSGHDLWTGSTWFDPWGQWTTVTVSSGGGGSGGGGSGGGGSEIVLTQSPGTLSLSPGERATLSCRASQSVSSSYLAWYQQKPGQAPRLLIYGASSRATGIPDRFSGSGSGTDFTLTISRLEPEDIAVYYCQQRSNWPRTFGQGTKVEIKRGLGGLASVDYKDDDDK | – | – | – | binding result (recombinant PKM1): no binding
Clone 7: independent scFv isolate with DNA sequence identical to scFv 5 (protein) scFv: MAQVQLVETGPGLVKPSETLSLRCTVSGGSFDNYYWNWIRQPPGKGLEYIGYVFPSTGATNYNPSLGSRVTISLDTSKNQFSLTLTSVTTADTAIYYCVRSGHDLWTGSTWFDPWGQWTTVTVSSGGGGSGGGGSGGGGSEIVLTQSPGTLSLSPGERATLSCRASQSVSSSYLAWYQQKPGQAPRLLIYGASSRATGIPDRFSGSGSGTDFTLTISRLEPEDIAVYYCQQRSNWPRTFGQGTKVEIKRGLGGLASVDYKDDDDK | – | – | pulled down a 55-kD protein now identified as pyruvate kinase M2 | –
IB12: intrabody clone (scFv) that pulls down PKM2, SEQ ID NO: 1 (protein, Artificial intrabody clone 12) scFv: MAQVQLVQSGGGLVKPGGSLRLSCTASGFTFSTYWMHWFRQAPGKGLLWVSRINPDGSATIYADSVKGRFTISRDNAKNSLYLQMNSLRDEDTAVYYCARGHPLSGYPGYFDYWGQGTLVTVSSGGGGSGGGGSGVADPRLCSLSRLPSLHLLEHQQSHLHFTSGINVGAYRIYWYQQKPGSPPQFLLRYKSDSDKQQGSGVPSRFSGSRDASANAGILLISGLRSEDEADYYCAIWHSSAWVFGGGTKLTVLWGSGLASVDYKDDDDK | – | – | pulled down a 55-kD protein now identified as pyruvate kinase M2 | –
